Legend:
Assay type in all cases: functional
CCRF-CEM = assay: Growth inhibition of human CCRF-CEM cells at 10^-5 M incubated for 48 hrs by sulforhodamine B assay; conditions: read-out: GI
HL-60(TB) = assay: Growth inhibition of human HL-60(TB) cells at 10^-5 M incubated for 48 hrs by sulforhodamine B assay; conditions: HL-60, 48 h, read-out: GI
K562 = assay: Growth inhibition of human K562 cells at 10^-5 M incubated for 48 hrs by sulforhodamine B assay; conditions: K562, 48 h, read-out: GI
MOLT-4 = assay: Growth inhibition of human MOLT4 cells at 10^-5 M incubated for 48 hrs by sulforhodamine B assay; conditions: MOLT-4, 48 h, read-out: GI
SR = assay: Growth inhibition of human SR cells at 10^-5 M incubated for 48 hrs by sulforhodamine B assay; conditions: read-out: GI
A549 = assay: Growth inhibition of human A549/ATCC cells at 10^-5 M incubated for 48 hrs by sulforhodamine B assay; conditions: A549, 48 h, read-out: GI
EKVX = assay: Growth inhibition of human EKVX cells at 10^-5 M incubated for 48 hrs by sulforhodamine B assay; conditions: read-out: GI
HOP-62 = assay: Growth inhibition of human HOP62 cells at 10^-5 M incubated for 48 hrs by sulforhodamine B assay; conditions: HOP-62, 48 h, read-out: GI
HOP-92 = assay: Growth inhibition of human HOP92 cells at 10^-5 M incubated for 48 hrs by sulforhodamine B assay; conditions: HOP-92, 48 h, read-out: GI
NCI-H226 = assay: Growth inhibition of human NCI-H226 cells at 10^-5 M incubated for 48 hrs by sulforhodamine B assay; conditions: NCI-H226, 48 h, read-out: GI
NCI-H23 = assay: Growth inhibition of human NCI-H23 cells at 10^-5 M incubated for 48 hrs by sulforhodamine B assay; conditions: NCI-H23, 48 h, read-out: GI
NCI-H322M = assay: Growth inhibition of human NCI-H322M cells at 10^-5 M incubated for 48 hrs by sulforhodamine B assay; conditions: read-out: GI
NCI-H522 = assay: Growth inhibition of human NCI-H522 cells at 10^-5 M incubated for 48 hrs by sulforhodamine B assay; conditions: NCI-H522, 48 h, read-out: GI
HCT-116 = assay: Growth inhibition of human HCT116 cells at 10^-5 M incubated for 48 hrs by sulforhodamine B assay; conditions: HCT-116, 48 h, read-out: GI
HT-29 = assay: Growth inhibition of human HT-29 cells at 10^-5 M incubated for 48 hrs by sulforhodamine B assay; conditions: HT-29, 48 h, read-out: GI
KM12 = assay: Growth inhibition of human KM12 cells at 10^-5 M incubated for 48 hrs by sulforhodamine B assay; conditions: KM12, 48 h, read-out: GI
SW-620 = assay: Growth inhibition of human SW620 cells at 10^-5 M incubated for 48 hrs by sulforhodamine B assay; conditions: SW-620, 48 h, read-out: GI
SF-268 = assay: Growth inhibition of human SF268 cells at 10^-5 M incubated for 48 hrs by sulforhodamine B assay; conditions: SF-268, 48 h, read-out: GI
SF-295 = assay: Growth inhibition of human SF295 cells at 10^-5 M incubated for 48 hrs by sulforhodamine B assay; conditions: SF-295, 48 h, read-out: GI
Malme-3M = assay: Growth inhibition of human MALME-3M cells at 10^-5 M incubated for 48 hrs by sulforhodamine B assay; conditions: read-out: GI
M14 = assay: Growth inhibition of human M14 cells at 10^-5 M incubated for 48 hrs by sulforhodamine B assay; conditions: M14, 48 h, read-out: GI
MDA-MB-435 = assay: Growth inhibition of human MDA-MB-435 cells at 10^-5 M incubated for 48 hrs by sulforhodamine B assay; conditions: MDA-MB-435, 48 h, read-out: GI
SK-MEL-28 = assay: Growth inhibition of human SK-MEL-28 cells at 10^-5 M incubated for 48 hrs by sulforhodamine B assay; conditions: SK-MEL-28, 48 h, read-out: GI
IGROV-1 = assay: Growth inhibition of human IGROV1 cells at 10^-5 M incubated for 48 hrs by sulforhodamine B assay; conditions: IGROV-1, 48 h, read-out: GI
OVCAR-3 = assay: Growth inhibition of human OVCAR3 cells at 10^-5 M incubated for 48 hrs by sulforhodamine B assay; conditions: OVCAR-3, 48 h, read-out: GI
OVCAR-4 = assay: Growth inhibition of human OVCAR4 cells at 10^-5 M incubated for 48 hrs by sulforhodamine B assay; conditions: OVCAR-4, 48 h, read-out: GI
OVCAR-8 = assay: Growth inhibition of human OVCAR8 cells at 10^-5 M incubated for 48 hrs by sulforhodamine B assay; conditions: OVCAR-8, 48 h, read-out: GI
A498 = assay: Growth inhibition of human A498 cells at 10^-5 M incubated for 48 hrs by sulforhodamine B assay; conditions: A498, 48 h, read-out: GI
ACHN = assay: Growth inhibition of human ACHN cells at 10^-5 M incubated for 48 hrs by sulforhodamine B assay; conditions: read-out: GI
CAKI-1 = assay: Growth inhibition of human Caki1 cells at 10^-5 M incubated for 48 hrs by sulforhodamine B assay; conditions: CAKI-1, 48 h, read-out: GI
TK-10 = assay: Growth inhibition of human TK10 cells at 10^-5 M incubated for 48 hrs by sulforhodamine B assay; conditions: TK-10, 48 h, read-out: GI
UO-31 = assay: Growth inhibition of human UO31 cells at 10^-5 M incubated for 48 hrs by sulforhodamine B assay; conditions: UO-31, 48 h, read-out: GI
DU-145 = assay: Growth inhibition of human DU145 cells at 10^-5 M incubated for 48 hrs by sulforhodamine B assay; conditions: DU-145, 48 h, read-out: GI
MCF7 = assay: Growth inhibition of human MCF7 cells at 10^-5 M incubated for 48 hrs by sulforhodamine B assay; conditions: MCF7, 48 h, read-out: GI
MDA-MB-231 = assay: Growth inhibition of human MDA-MB-231 cells at 10^-5 M incubated for 48 hrs by sulforhodamine B assay; conditions: MDA-MB-231, 48 h, read-out: GI
Hs-578T = assay: Growth inhibition of human Hs 578T cells at 10^-5 M incubated for 48 hrs by sulforhodamine B assay; conditions: read-out: GI
BT-549 = assay: Growth inhibition of human BT549 cells at 10^-5 M incubated for 48 hrs by sulforhodamine B assay; conditions: BT-549, 48 h, read-out: GI
T47D = assay: Growth inhibition of human T47D cells at 10^-5 M incubated for 48 hrs by sulforhodamine B assay; conditions: read-out: GI
MDA-MB-468 = assay: Growth inhibition of human MDA-MB-468 cells at 10^-5 M incubated for 48 hrs by sulforhodamine B assay; conditions: MDA-MB-468, 48 h, read-out: GI

| SMILES | inhibition of growth at 10 µM (CCRF-CEM) [%] | inhibition of growth at 10 µM (HL-60(TB)) [%] | inhibition of growth at 10 µM (K562) [%] | inhibition of growth at 10 µM (MOLT-4) [%] | inhibition of growth at 10 µM (SR) [%] | inhibition of growth at 10 µM (A549) [%] | inhibition of growth at 10 µM (EKVX) [%] | inhibition of growth at 10 µM (HOP-62) [%] | inhibition of growth at 10 µM (HOP-92) [%] | inhibition of growth at 10 µM (NCI-H226) [%] | inhibition of growth at 10 µM (NCI-H23) [%] | inhibition of growth at 10 µM (NCI-H322M) [%] | inhibition of growth at 10 µM (NCI-H522) [%] | inhibition of growth at 10 µM (HCT-116) [%] | inhibition of growth at 10 µM (HT-29) [%] | inhibition of growth at 10 µM (KM12) [%] | inhibition of growth at 10 µM (SW-620) [%] | inhibition of growth at 10 µM (SF-268) [%] | inhibition of growth at 10 µM (SF-295) [%] | inhibition of growth at 10 µM (Malme-3M) [%] | further results |
| --- | --- | --- | --- | --- | --- | --- | --- | --- | --- | --- | --- | --- | --- | --- | --- | --- | --- | --- | --- | --- | --- |
| N=C1Nc2c(sc3ccc(Cl)cc23)C(c2cccc(Br)c2)N1 (stereo not drawn) | -20.7 | -2.27 | 13.7 | 7.81 | 22.4 | 1.98 | 14.5 | 8.49 | 3.3 | 21.6 | 13.7 | 10.3 | 12.2 | 3.22 | -3.97 | 6.3 | -3.61 | 6.03 | -3.08 | 4.36 | inhibition of growth at 10 µM (M14): 1.65%; inhibition of growth at 10 µM (MDA-MB-435): 1.88%; inhibition of growth at 10 µM (SK-MEL-28): -17.9%; inhibition of growth at 10 µM (IGROV-1): 13%; inhibition of growth at 10 µM (OVCAR-3): 0.84%; inhibition of growth at 10 µM (OVCAR-4): 6.46%; inhibition of growth at 10 µM (OVCAR-8): -2.43%; inhibition of growth at 10 µM (A498): -4.39%; inhibition of growth at 10 µM (ACHN): 7.06%; inhibition of growth at 10 µM (CAKI-1): 20.5%; inhibition of growth at 10 µM (TK-10): -23.2%; inhibition of growth at 10 µM (UO-31): 38.3%; inhibition of growth at 10 µM (DU-145): -10.7%; inhibition of growth at 10 µM (MCF7): 25.6%; inhibition of growth at 10 µM (MDA-MB-231): 12.6%; inhibition of growth at 10 µM (Hs-578T): -4.14%; inhibition of growth at 10 µM (BT-549): -21.8%; inhibition of growth at 10 µM (T47D): 11.3%; inhibition of growth at 10 µM (MDA-MB-468): 13.6% |
| O=C1Nc2c(sc3ccc(Cl)cc23)C(c2cccc(Br)c2)N1 (stereo not drawn) | -14.4 | 7.88 | 6.28 | 5.84 | 20.9 | 5.34 | 7.46 | 22.2 | 0.42 | 3.66 | 9.39 | 5.33 | -0.2 | 4.12 | -7.8 | -0.31 | -0.2 | 0.19 | -0.96 | 2.75 | inhibition of growth at 10 µM (M14): 1.96%; inhibition of growth at 10 µM (MDA-MB-435): -5.37%; inhibition of growth at 10 µM (SK-MEL-28): -12.8%; inhibition of growth at 10 µM (IGROV-1): 20.8%; inhibition of growth at 10 µM (OVCAR-3): 6.24%; inhibition of growth at 10 µM (OVCAR-4): -6.24%; inhibition of growth at 10 µM (OVCAR-8): -2.63%; inhibition of growth at 10 µM (A498): -8.2%; inhibition of growth at 10 µM (ACHN): 5.37%; inhibition of growth at 10 µM (CAKI-1): 17.7%; inhibition of growth at 10 µM (TK-10): -23.4%; inhibition of growth at 10 µM (UO-31): -23.4%; inhibition of growth at 10 µM (DU-145): -8.69%; inhibition of growth at 10 µM (MCF7): -8.69%; inhibition of growth at 10 µM (MDA-MB-231): 6.83%; inhibition of growth at 10 µM (Hs-578T): -5.56%; inhibition of growth at 10 µM (BT-549): -17.5%; inhibition of growth at 10 µM (T47D): 13%; inhibition of growth at 10 µM (MDA-MB-468): -26.3% |

From ChEMBL document CHEMBL4414672, “Synthesis of certain benzothieno[3,2-d]pyrimidine derivatives as a selective SIRT2 inhibitors” (Eur J Med Chem, 2020)
